Laboratory results reported in patent publication US11066396B2 (priority 2016, dated 2021).

How the values were obtained:
HDAC1 = HDAC1 (Homo sapiens (Human), UniProt Q13547); conditions: read-out: HDAC1 IC50
Protocol: Assay protocol: In brief, compounds were titrated in 100% DMSO via accoustic dispensing directly to the assay plate using the ECHO 550 [Labcyte]. HDAC enzymes at the concentrations indicated above were added in assay buffer to the assay plates containing the compounds using a Combi [Thermo Scientific]. The wells were mixed, and the plates were allowed to pre-incubate at ambient temperature for 3 h. After the 3 h, the appropriate substrate, at the concentrations indicated above, was added to the wells using a Combi. The wells were mixed, and the plates were allowed to incubate at ambient temperature for 1 h. After the 1 h, the appropriate Developer/stop solution was added to the wells using a Combi. The wells were mixed, and the plates were allowed to incubate at ambient temperature for 1 h. […] Data were analyzed using 4P curve fitting with Activity Base [IDBS] software.

HDAC5 = HDAC5 (Homo sapiens (Human), UniProt Q9UQL6); conditions: read-out: HDAC5 IC50
HDAC8 = HDAC8 (Homo sapiens (Human), UniProt Q9BY41); conditions: read-out: HDAC8 IC50
Chain of HDAC8 (Q9BY41 whole entry): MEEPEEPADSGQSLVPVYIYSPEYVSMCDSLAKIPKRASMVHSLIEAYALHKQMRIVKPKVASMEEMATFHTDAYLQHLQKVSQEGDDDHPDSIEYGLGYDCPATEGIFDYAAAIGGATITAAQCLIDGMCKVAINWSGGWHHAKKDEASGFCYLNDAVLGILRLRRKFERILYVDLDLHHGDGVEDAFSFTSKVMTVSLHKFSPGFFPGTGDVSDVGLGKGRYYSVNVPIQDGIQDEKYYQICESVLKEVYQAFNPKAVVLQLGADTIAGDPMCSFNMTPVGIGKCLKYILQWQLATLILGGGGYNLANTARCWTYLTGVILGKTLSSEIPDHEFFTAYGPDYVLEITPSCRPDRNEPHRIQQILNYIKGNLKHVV

Chain of HDAC1 (Q13547 whole entry): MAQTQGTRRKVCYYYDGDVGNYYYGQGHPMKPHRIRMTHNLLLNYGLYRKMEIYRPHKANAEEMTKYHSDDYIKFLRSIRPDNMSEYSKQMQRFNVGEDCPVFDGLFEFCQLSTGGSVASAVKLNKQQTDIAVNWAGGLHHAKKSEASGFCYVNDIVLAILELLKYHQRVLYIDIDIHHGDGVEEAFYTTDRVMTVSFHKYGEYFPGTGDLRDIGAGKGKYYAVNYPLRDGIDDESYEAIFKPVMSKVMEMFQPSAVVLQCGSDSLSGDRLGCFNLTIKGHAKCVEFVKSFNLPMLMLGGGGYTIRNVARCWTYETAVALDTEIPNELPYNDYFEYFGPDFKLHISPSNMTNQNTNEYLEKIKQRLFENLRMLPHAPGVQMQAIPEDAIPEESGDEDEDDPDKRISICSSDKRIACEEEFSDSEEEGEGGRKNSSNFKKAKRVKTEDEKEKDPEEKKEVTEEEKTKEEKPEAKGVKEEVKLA
Chain of HDAC5 (Q9UQL6 656-1122): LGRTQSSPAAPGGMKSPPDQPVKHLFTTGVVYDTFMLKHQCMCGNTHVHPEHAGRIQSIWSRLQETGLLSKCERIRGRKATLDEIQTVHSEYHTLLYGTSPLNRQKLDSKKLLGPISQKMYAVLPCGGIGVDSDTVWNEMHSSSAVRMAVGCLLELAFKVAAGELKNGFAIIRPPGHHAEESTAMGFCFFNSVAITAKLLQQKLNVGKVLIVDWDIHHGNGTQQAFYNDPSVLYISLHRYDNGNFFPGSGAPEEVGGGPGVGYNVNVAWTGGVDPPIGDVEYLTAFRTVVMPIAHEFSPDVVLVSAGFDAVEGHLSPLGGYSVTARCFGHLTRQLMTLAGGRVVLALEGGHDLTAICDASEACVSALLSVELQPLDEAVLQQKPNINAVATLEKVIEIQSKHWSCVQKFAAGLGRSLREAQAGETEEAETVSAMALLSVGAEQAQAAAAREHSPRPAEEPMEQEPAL

Structure (SMILES) | IC50 (HDAC1) | IC50 (HDAC5) | IC50 (HDAC8)
O=C(NC1CCOCC1)OCc1ccc(-c2noc(C(F)(F)F)n2)cn1 [Example 195, {5-[5-(trifluoromethyl)-1,2,4-oxadiazol-3-yl]pyridin-2-yl}methyl oxan-4-ylcarbamate] | 780 nM | 660 nM | 1600 nM
O=C(NC(Cc1ccc(-c2noc(C(F)(F)F)n2)cn1)c1cccc(C(F)(F)F)c1)c1ncccn1 (racemic) [Example 484, N-(2-{5-[5-(trifluoromethyl)-1,2,4-oxadiazol-3-yl]pyridin-2-yl}-1-[3-(trifluoromethyl)phenyl]ethyl)pyrimidine-2-carboxamide] | 600 nM | 720 nM | 2500 nM
O=c1[nH]c2ccccc2n(Cc2ccc(-c3noc(C(F)(F)F)n3)cn2)c1=O [Example 469, 1-({5-[5-(trifluoromethyl)-1,2,4-oxadiazol-3-yl]pyridin-2-yl}methyl)-1,4-dihydroquinoxaline-2,3-dione] | 86 nM | 22 nM | 1400 nM
CC(C(=O)N(Cc1ccc(-c2noc(C(F)(F)F)n2)cn1)c1cccc(F)c1)c1ccn(C)n1 (racemic) [Example 58, N-(3-fluorophenyl)-2-(1-methyl-1H-pyrazol-3-yl)-N-((5-(5-(trifluoromethyl)-1,2,4-oxadiazol-3-yl)pyridin-2-yl)methyl)propanamide] | 220 nM | 730 nM | 1700 nM
COc1ccc(OCc2ccc(-c3noc(C(F)(F)F)n3)c(F)c2)nc1 [Example 243, 2-({3-fluoro-4-[5-(trifluoromethyl)-1,2,4-oxadiazol-3-yl]phenyl}methoxy)-5-methoxypyridine] | 1500 nM | 50 nM | 1600 nM
Cn1c([C@@H]2CCC(=O)N2c2ccc(-c3noc(C(F)(F)F)n3)cc2)nc2ccccc21 [Example 108, (S)-5-(1-methyl-1H-benzo[d]imidazol-2-yl)-1-(4-(5-(trifluoromethyl)-1,2,4-oxadiazol-3-yl)phenyl)pyrrolidin-2-one] | 2000 nM | 120 nM | 2900 nM
Fc1cc(COc2cnc3c(c2)COC3)ccc1-c1noc(C(F)(F)F)n1 [Example 245, 3-({3-fluoro-4-[5-(trifluoromethyl)-1,2,4-oxadiazol-3-yl]phenyl}methoxy)-5,7-dihydrofuro[3,4-b]pyridine] | 1500 nM | 180 nM | 3400 nM
COCC(=O)NC(Cc1ccc(-c2noc(C(F)(F)F)n2)cn1)c1cccc(C(F)(F)F)c1 (racemic) [Example 480, 2-methoxy-N-(2-{5-[5-(trifluoromethyl)-1,2,4-oxadiazol-3-yl]pyridin-2-yl}-1-[3-(trifluoromethyl)phenyl]ethyl)acetamide] | 670 nM | 620 nM | 5300 nM
Cc1noc([C@@H]2CCCCN2c2ccc(-c3noc(C(F)(F)F)n3)cn2)n1 [Example 140, (S)-3-methyl-5-(1-(5-(5-(trifluoromethyl)-1,2,4-oxadiazol-3-yl)pyridin-2-yl)piperidin-2-yl)-1,2,4-oxadiazole] | 930 nM | 150 nM | 1000 nM
Cc1nc(Cl)cnc1COc1ccc(-c2noc(C(F)(F)F)n2)cn1 [Example 184, 3-(6-((5-Chloro-3-methylpyrazin-2-yl)methoxy)pyridin-3-yl)-5-(trifluoromethyl)-1,2,4-oxadiazole] | 2300 nM | 1100 nM | 2700 nM
Fc1cc(COc2cc(C(F)F)ncn2)ccc1-c1noc(C(F)(F)F)n1 [Example 242, 4-(difluoromethyl)-6-({3-fluoro-4-[5-(trifluoromethyl)-1,2,4-oxadiazol-3-yl]phenyl}methoxy)pyrimidine] | 2900 nM | 110 nM | 1700 nM
O=C(Cn1cncn1)N(Cc1ccc(-c2noc(C(F)(F)F)n2)cc1)c1cccc(C(F)(F)F)c1 [Example 68, 2-(1H-1,2,4-triazol-1-yl)-N-(4-(5-(trifluoromethyl)-1,2,4-oxadiazol-3-yl)benzyl)-N-(3-(trifluoromethyl)phenyl)acetamide] | 690 nM | 500 nM | 2000 nM
O=C(N1CCOCC1)N(Cc1ccc(-c2noc(C(F)(F)F)n2)cn1)c1cccc(C(F)(F)F)c1 [Example 49, N-((5-(5-(trifluoromethyl)-1,2,4-oxadiazol-3-yl)pyridin-2-yl)methyl)-N-(3-(trifluoromethyl)phenyl)morpholine-4-carboxamide] | 1000 nM | 1900 nM | 10000 nM
O=C1NCCc2c(OCc3ccc(-c4noc(C(F)(F)F)n4)c(F)c3)cccc21 [Example 231, 5-({3-fluoro-4-[5-(trifluoromethyl)-1,2,4-oxadiazol-3-yl]phenyl}methoxy)-3,4-dihydroisoquinolin-1(2H)-one] | 6900 nM | 110 nM | 45000 nM
O=C(C1CCS(=O)(=O)CC1)N(Cc1ccc(-c2noc(C(F)(F)F)n2)cc1)c1cccc(C(F)(F)F)c1 [Example 30, N-(4-(5-(Trifluoromethyl)-1,2,4-oxadiazol-3-yl)benzyl)-N-(3-(trifluoromethyl)phenyl)tetrahydro-2H-thiopyran-4-carboxamide 1,1-dioxide] | 1340 nM | 1200 nM | 4300 nM
COCc1cccc(CCOc2cc(-c3noc(C(F)(F)F)n3)ccn2)c1 [Example 476, 2-{2-[3-(methoxymethyl)phenyl]ethoxy}-4-[5-(trifluoromethyl)-1,2,4-oxadiazol-3-yl]pyridine] | 1900 nM | 780 nM | 3000 nM
CC(C)(C)OC(=O)[C@@H]1CCC(=O)N1c1ccc(-c2noc(C(F)(F)F)n2)c(F)c1F [Example 124, tert-butyl (S)-1-(2,3-difluoro-4-(5-(trifluoromethyl)-1,2,4-oxadiazol-3-yl)phenyl)-5-oxopyrrolidine-2-carboxylate] | 1300 nM | 17 nM | 7400 nM
Fc1cc(COc2nncc3ccccc23)ccc1-c1noc(C(F)(F)F)n1 [Example 228, 1-({3-fluoro-4-[5-(trifluoromethyl)-1,2,4-oxadiazol-3-yl]phenyl}methoxy)phthalazine] | 4300 nM | 140 nM | 2000 nM
Cc1nccc(OCc2ccc(-c3noc(C(F)(F)F)n3)c(F)c2)n1 [Example 241, 4-({3-fluoro-4-[5-(trifluoromethyl)-1,2,4-oxadiazol-3-yl]phenyl}methoxy)-2-methylpyrimidine] | 3200 nM | 48 nM | 3000 nM
Fc1cc(COc2ccc3ncnn3c2)ccc1-c1noc(C(F)(F)F)n1 [Example 240, 6-({3-fluoro-4-[5-(trifluoromethyl)-1,2,4-oxadiazol-3-yl]phenyl}methoxy)[1,2,4]triazolo[1,5-a]pyridine] | 1500 nM | 78 nM | 11000 nM
CC1(C)CCCCN1C(=O)[C@@H]1CCC(=O)N1c1ccc(-c2noc(C(F)(F)F)n2)c(F)c1 [Example 343, (5S)-5-[(2,2-dimethylpiperidin-1-yl)carbonyl]-1-{3-fluoro-4-[5-(trifluoromethyl)-1,2,4-oxadiazol-3-yl]phenyl}pyrrolidin-2-one] | 24000 nM | 3000 nM | 25000 nM
O=C(C(Cc1ccc(-c2noc(C(F)(F)F)n2)cn1)c1cccc(C(F)(F)F)c1)N1CC[S+]([O-])CC1 (racemic) [Example 199, 4-(3-{5-[5-(trifluoromethyl)-1,2,4-oxadiazol-3-yl]pyridin-2-yl}-2-[3-(trifluoromethyl)phenyl]propanoyl)-llambda~4~,4-thiazinan-1-one] | 4100 nM | 2100 nM | 9900 nM
O=C1CCC(c2ccccc2Cl)N1c1ccc(-c2noc(C(F)(F)F)n2)cc1F (centres unmarked) [Example 117, 5-(2-chlorophenyl)-1-(2-fluoro-4-(5-(trifluoromethyl)-1,2,4-oxadiazol-3-yl)phenyl)pyrrolidin-2-one] | 1800 nM | 140 nM | 3100 nM
Fc1cnc(OCc2ccc(-c3noc(C(F)(F)F)n3)c(F)c2)nc1 [Example 230, 5-fluoro-2-({3-fluoro-4-[5-(trifluoromethyl)-1,2,4-oxadiazol-3-yl]phenyl}methoxy)pyrimidine] | 8500 nM | 200 nM | 540 nM
Fc1cc(COc2cc[nH]n2)ccc1-c1noc(C(F)(F)F)n1 [Example 232, 3-(2-fluoro-4-{[(1H-pyrazol-3-yl)oxy]methyl}phenyl)-5-(trifluoromethyl)-1,2,4-oxadiazole] | 3000 nM | 67 nM | 1300 nM
O=C1COC[C@@H](c2ccccc2)N1c1ccc(-c2noc(C(F)(F)F)n2)cn1 [Example 126, (R)-5-phenyl-4-(5-(5-(trifluoromethyl)-1,2,4-oxadiazol-3-yl)pyridin-2-yl)morpholin-3-one] | 1400 nM | 190 nM | 5000 nM
Cc1ccncc1COc1ccc(-c2noc(C(F)(F)F)n2)cn1 [Example 202, 2-[(4-methylpyridin-3-yl)methoxy]-5-[5-(trifluoromethyl)-1,2,4-oxadiazol-3-yl]pyridine] | 2200 nM | 730 nM | 900 nM
O=C1NCCCC1NCc1ccc(-c2noc(C(F)(F)F)n2)cn1 (racemic) [Example 458, 3-[({5-[5-(trifluoromethyl)-1,2,4-oxadiazol-3-yl]pyridin-2-yl}methyl)amino]piperidin-2-one] | 8300 nM | 290 nM | 2800 nM
CC(C)NC(=O)OCc1ccc(-c2noc(C(F)(F)F)n2)cn1 [Example 192, (5-(5-(Trifluoromethyl)-1,2,4-oxadiazol-3-yl)pyridin-2-yl)methyl isopropylcarbamate] | 660 nM | 640 nM | 1800 nM
O=C1NCCc2c(OCc3ccc(-c4noc(C(F)(F)F)n4)cn3)cccc21 [Example 299, 5-({5-[5-(trifluoromethyl)-1,2,4-oxadiazol-3-yl]pyridin-2-yl}methoxy)-3,4-dihydroisoquinolin-1(2H)-one] | 1300 nM | 800 nM | –
